Structures are written as SMILES.

For the experiment, the target named is T1, GST-tagged-Wee1 kinase (Homo sapiens, UniProt P30291).
T1 construct: purchased Carnabio (Carna Biosciences) 05-177
T1 sequence (P30291 whole entry): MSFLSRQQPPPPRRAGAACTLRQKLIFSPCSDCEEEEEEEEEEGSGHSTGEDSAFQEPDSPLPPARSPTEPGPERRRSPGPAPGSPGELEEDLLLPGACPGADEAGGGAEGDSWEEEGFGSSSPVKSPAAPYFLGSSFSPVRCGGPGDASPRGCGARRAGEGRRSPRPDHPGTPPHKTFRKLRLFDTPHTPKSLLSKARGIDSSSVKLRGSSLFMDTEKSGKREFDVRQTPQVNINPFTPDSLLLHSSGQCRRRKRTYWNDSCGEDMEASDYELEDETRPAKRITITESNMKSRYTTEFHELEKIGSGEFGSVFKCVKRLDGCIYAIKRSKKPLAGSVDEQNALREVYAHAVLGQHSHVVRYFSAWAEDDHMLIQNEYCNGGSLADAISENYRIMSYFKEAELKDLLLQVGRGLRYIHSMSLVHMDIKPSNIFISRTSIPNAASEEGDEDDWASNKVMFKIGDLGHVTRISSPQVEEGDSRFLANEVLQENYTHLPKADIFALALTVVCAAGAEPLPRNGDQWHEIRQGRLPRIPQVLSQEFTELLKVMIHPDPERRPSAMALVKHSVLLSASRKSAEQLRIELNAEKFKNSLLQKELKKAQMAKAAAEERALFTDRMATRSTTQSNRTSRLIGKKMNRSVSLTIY
Description: Wee1 time-resolved fluorescence equilibrium binding assay (displacement of Oregon Green-labeled ATP-competitive kinase probe). Particulars: read-out: Wee-1 inhibition (Ki). The method, then: Wee1 kinase was assayed using a time-resolved fluorescence equilibrium binding assay monitoring displacement of a rapidly reversible Oregon Green-labeled ATP-competitive kinase probe (N-(2-(2-(2-(4-(4-(5-chloro-4-(2-(1-hydroxycyclobutyl)thiazol-5-yl)-1H-pyrrolo[2,3-b]pyridin-2-yl)phenyl)piperazin-1-yl)ethoxy)ethoxy)ethyl)-2′,7′-difluoro-3′,6′-dihydroxy-3-oxo-3H-spiro[isobenzofuran-1,9′-xanthene]-5-carboxamide) by competitive Wee1 inhibitors.
Table 1 depicts enzyme inhibition data (Ki) for exemplary compounds.
`Cc1cccc(C)c1-n1c(=O)c2cnc(Nc3ccc4c(c3)CN(C)CC43CC3)nc2n2ccnc12` [Example 62, 6-(2,6-dimethylphenyl)-2-[(2′-methyl-2′,3′-dihydro-1′H-spiro[cyclopropane-1,4′-isoquinolin]-7′-yl)amino]imidazo[1,2-a]pyrimido[5,4-e]pyrimidin-5(6H)-one]: the Ki (commonly a dissociation constant, usually derived from enzyme kinetics or from competition with a known ligand) was less than 10 nM.

In the case of `O=c1c2cnc(Nc3ccc(N4CCN(Cc5cccc(Cl)c5)CC4)cc3)nc2n2ccnc2n1-c1ccccc1Cl` [Example 63, 2-({4-[4-(3-chlorobenzyl)piperazin-1-yl]phenyl}amino)-6-(2-chlorophenyl)imidazo[1,2-a]pyrimido[5,4-e]pyrimidin-5(6H)-one], the Ki was 10 to 100 nM.

In the case of `COCCN1CCN(c2ccc(Nc3ncc4c(=O)n(-c5ccccc5Cl)c5nccn5c4n3)cc2)CC1` [Example 64, 6-(2-chlorophenyl)-2-({4-[4-(2-methoxyethyl)piperazin-1-yl]phenyl}amino)imidazo[1,2-a]pyrimido[5,4-e]pyrimidin-5(6H)-one], the inhibitory constant (Ki) was less than 10 nM.

Regarding `COc1cc(Nc2ncc3c(=O)n(-c4ccccc4Cl)c4nccn4c3n2)ccc1N1CCN(C)CC1` [Example 65, 6-(2-chlorophenyl)-2-{[3-methoxy-4-(4-methylpiperazin-1-yl)phenyl]amino}imidazo[1,2-a]pyrimido[5,4-e]pyrimidin-5(6H)-one], the Ki is less than 10 nM.

Regarding `COc1cc(Nc2ncc3c(=O)n(-c4ccccc4Cl)c4nccn4c3n2)ccc1N1CCN(C(C)C)CC1` [Example 66, 6-(2-chlorophenyl)-2-({3-methoxy-4-[4-(propan-2-yl)piperazin-1-yl]phenyl}amino)imidazo[1,2-a]pyrimido[5,4-e]pyrimidin-5(6H)-one], the Ki was less than 10 nM.

In the case of `COc1cc(Nc2ncc3c(=O)n(-c4ccccc4Cl)c4nccn4c3n2)ccc1OCCN1CCN(C)CC1` [Example 67, 6-(2-chlorophenyl)-2-({3-methoxy-4-[2-(4-methylpiperazin-1-yl)ethoxy]phenyl}amino)imidazo[1,2-a]pyrimido[5,4-e]pyrimidin-5(6H)-one], the Ki was less than 10 nM.

With `O=c1c2cnc(Nc3ccccc3)nc2n2ccnc2n1-c1cccc(O)c1` [Example 68, 6-(3-hydroxyphenyl)-2-(phenylamino)imidazo[1,2-a]pyrimido[5,4-e]pyrimidin-5(6H)-one], the Ki lay within 10 to 100 nM.

For the molecule `Cc1ccc(Nc2ncc3c(=O)n(-c4ccccc4Cl)c4nccn4c3n2)cc1` [Example 69, 6-(2-chlorophenyl)-2-[(4-methylphenyl)amino]imidazo[1,2-a]pyrimido[5,4-e]pyrimidin-5(6H)-one], the Ki is 10 to 100 nM.

Take `O=c1c2cnc(Nc3ccc(C4CCCCN4)cc3)nc2n2ccnc2n1-c1ccccc1Cl` (stereo not drawn) [Example 70, 6-(2-chlorophenyl)-2-{[4-(piperidin-2-yl)phenyl]amino}imidazo[1,2-a]pyrimido[5,4-e]pyrimidin-5(6H)-one]: the inhibition constant (Ki) is less than 10 nM.

Turning to `O=c1c2cnc(Nc3ccc(C4CCCN4)cc3)nc2n2ccnc2n1-c1ccccc1Cl` (stereo not drawn) [Example 71, 6-(2-chlorophenyl)-2-{[4-(pyrrolidin-2-yl)phenyl]amino}imidazo[1,2-a]pyrimido[5,4-e]pyrimidin-5(6H)-one], the Ki is less than 10 nM.

For `O=c1c2cnc(Nc3ccc(C4CCNC4)cc3)nc2n2ccnc2n1-c1ccccc1Cl` (stereo not drawn) [Example 72, 6-(2-chlorophenyl)-2-{[4-(pyrrolidin-3-yl)phenyl]amino}imidazo[1,2-a]pyrimido[5,4-e]pyrimidin-5(6H)-one], the Ki is less than 10 nM.

As for `CN1Cc2cc(Nc3ncc4c(=O)n(-c5c(Cl)cccc5Cl)c5nccn5c4n3)ccc2C2(CC2)C1` [Example 73, 6-(2,6-dichlorophenyl)-2-[(2′-methyl-2′,3′-dihydro-1′H-spiro[cyclopropane-1,4′-isoquinolin]-7′-yl)amino]imidazo[1,2-a]pyrimido[5,4-e]pyrimidin-5(6H)-one], the inhibition constant (Ki) was less than 10 nM.

For the molecule `Cc1cc(Nc2ncc3c(=O)n(-c4c(Cl)cccc4Cl)c4nccn4c3n2)ccc1N1CCCN(C)CC1` [Example 74, 6-(2,6-dichlorophenyl)-2-{[3-methyl-4-(4-methyl-1,4-diazepan-1-yl)phenyl]amino}imidazo[1,2-a]pyrimido[5,4-e]pyrimidin-5(6H)-one], the inhibitory constant (Ki) was less than 10 nM.

`O=c1c2cnc(Nc3ccc(N4CCNCC4)c(C(F)(F)F)c3)nc2n2ccnc2n1-c1ccccc1Cl` [Example 75, 6-(2-chlorophenyl)-2-{[4-(piperazin-1-yl)-3-(trifluoromethyl)phenyl]amino}imidazo[1,2-a]pyrimido[5,4-e]pyrimidin-5(6H)-one]: the Ki is less than 10 nM.

Take `O=c1c2cnc(Nc3ccc(OC[C@@H]4CCCN4)cc3)nc2n2ccnc2n1-c1ccccc1Cl` [Example 76, 6-(2-chlorophenyl)-2-({4-[(2S)-pyrrolidin-2-ylmethoxy]phenyl}amino)imidazo[1,2-a]pyrimido[5,4-e]pyrimidin-5(6H)-one]: the Ki was less than 10 nM.

On to `Cc1cc(OCCCN2CCN(C)CC2)ccc1Nc1ncc2c(=O)n(-c3ccccc3Cl)c3nccn3c2n1` [Example 77, 6-(2-chlorophenyl)-2-({2-methyl-4-[3-(4-methylpiperazin-1-yl)propoxy]phenyl}amino)imidazo[1,2-a]pyrimido[5,4-e]pyrimidin-5(6H)-one], for which the inhibition constant Ki is more than 100 nM.

`O=c1c2cnc(Nc3ccc(CN4CCOCC4)cc3)nc2n2ccnc2n1-c1ccccc1Cl` [Example 78, 6-(2-chlorophenyl)-2-{[4-(morpholin-4-ylmethyl)phenyl]amino}imidazo[1,2-a]pyrimido[5,4-e]pyrimidin-5(6H)-one]: the Ki was less than 10 nM.

As for `O=c1c2cnc(Nc3ccc(Cn4ccnc4)cc3)nc2n2ccnc2n1-c1ccccc1Cl` [Example 79, 6-(2-chlorophenyl)-2-{[4-(1H-imidazol-1-ylmethyl)phenyl]amino}imidazo[1,2-a]pyrimido[5,4-e]pyrimidin-5(6H)-one], the Ki is less than 10 nM.

Consider `O=c1c2cnc(Nc3ccc(-n4ccnc4)cc3)nc2n2ccnc2n1-c1ccccc1Cl` [Example 80, 6-(2-chlorophenyl)-2-{[4-(1H-imidazol-1-yl)phenyl]amino}imidazo[1,2-a]pyrimido[5,4-e]pyrimidin-5(6H)-one], for which the Ki was 10 to 100 nM.

Turning to `O=c1c2cnc(Nc3ccc(N4CCNCC4)nc3)nc2n2ccnc2n1-c1ccccc1Cl` [Example 81, 6-(2-chlorophenyl)-2-{[6-(piperazin-1-yl)pyridin-3-yl]amino}imidazo[1,2-a]pyrimido[5,4-e]pyrimidin-5(6H)-one], the Ki is less than 10 nM.

Regarding `CN1CCN(CCCOc2cccc(Nc3ncc4c(=O)n(-c5ccccc5Cl)c5nccn5c4n3)c2)CC1` [Example 82, 6-(2-chlorophenyl)-2-({3-[3-(4-methylpiperazin-1-yl)propoxy]phenyl}amino)imidazo[1,2-a]pyrimido[5,4-e]pyrimidin-5(6H)-one], the inhibitory constant (Ki) lay within 10 to 100 nM.

With `O=c1c2cnc(Nc3cccc(OCCCN4CCCCC4)c3)nc2n2ccnc2n1-c1ccccc1Cl` [Example 83, 6-(2-chlorophenyl)-2-({3-[3-(piperidin-1-yl)propoxy]phenyl}amino)imidazo[1,2-a]pyrimido[5,4-e]pyrimidin-5(6H)-one], the Ki is 10 to 100 nM.

With `O=c1c2cnc(Nc3ccccc3)nc2n2ccnc2n1-c1c(Cl)cccc1Cl` [Example 84, 6-(2,6-dichlorophenyl)-2-(phenylamino)imidazo[1,2-a]pyrimido[5,4-e]pyrimidin-5(6H)-one], the Ki is less than 10 nM.

Turning to `COc1cc(Nc2ncc3c(=O)n(-c4ccccc4Cl)c4nccn4c3n2)ccc1OCCNC(C)C` [Example 85, 6-(2-chlorophenyl)-2-({3-methoxy-4-[2-(propan-2-ylamino)ethoxy]phenyl}amino)imidazo[1,2-a]pyrimido[5,4-e]pyrimidin-5(6H)-one], the Ki was less than 10 nM.

Regarding `CC(C)NCCOc1ccc(Nc2ncc3c(=O)n(-c4ccccc4Cl)c4nccn4c3n2)cc1Cl` [Example 86, 6-(2-chlorophenyl)-2-({3-chloro-4-[2-(propan-2-ylamino)ethoxy]phenyl}amino)imidazo[1,2-a]pyrimido[5,4-e]pyrimidin-5(6H)-one], the inhibitory constant (Ki) is less than 10 nM.

With `O=c1c2cnc(Nc3ccc(CO)cc3)nc2n2ccnc2n1-c1ccccc1Cl` [Example 87, 6-(2-chlorophenyl)-2-{[4-(hydroxymethyl)phenyl]amino}imidazo[1,2-a]pyrimido[5,4-e]pyrimidin-5(6H)-one], the Ki is 10 to 100 nM.

Turning to `O=c1c2cnc(Nc3ccc(Cn4cccn4)cc3)nc2n2ccnc2n1-c1ccccc1Cl` [Example 88, 6-(2-chlorophenyl)-2-{[4-(1H-pyrazol-1-ylmethyl)phenyl]amino}imidazo[1,2-a]pyrimido[5,4-e]pyrimidin-5(6H)-one], the Ki was less than 10 nM.

Take `O=c1c2cnc(Nc3ccc(-n4cccn4)cc3)nc2n2ccnc2n1-c1ccccc1Cl` [Example 89, 6-(2-chlorophenyl)-2-{[4-(1H-pyrazol-1-yl)phenyl]amino}imidazo[1,2-a]pyrimido[5,4-e]pyrimidin-5(6H)-one]: the inhibition constant Ki lay within 10 to 100 nM.

Regarding `O=c1c2cnc(Nc3ccc4c(c3)CNCC43CC3)nc2n2ccnc2n1-c1ccccc1Cl` [Example 90, 6-(2-chlorophenyl)-2-(2′,3′-dihydro-1′H-spiro[cyclopropane-1,4′-isoquinolin]-7′-ylamino)imidazo[1,2-a]pyrimido[5,4-e]pyrimidin-5(6H)-one], the inhibition constant (Ki) is less than 10 nM.

As to `CC(=O)N1Cc2cc(Nc3ncc4c(=O)n(-c5ccccc5Cl)c5nccn5c4n3)ccc2C2(CC2)C1` [Example 91, 2-[(2′-acetyl-2′,3′-dihydro-1′H-spiro[cyclopropane-1,4′-isoquinolin]-7′-yl)amino]-6-(2-chlorophenyl)imidazo[1,2-a]pyrimido[5,4-e]pyrimidin-5(6H)-one], the inhibition constant Ki is less than 10 nM.

For the origin of these results see patent publication US8710065B2, “Tricyclic inhibitors of kinases” (AbbVie Inc., priority 2011, dated 2014).
